Results from patent publication US11510888B2, “Alleviating oxidative stress disorders with PUFA derivatives” (Retrotope, Inc., priority 2009, dated 2022).

Legend:
[1] = tested on: coq null mutants (Q-less yeast); conditions: for protection in the yeast model: compared with D4-linolenic acid
Description: FIG. 3. […] Yeast coq3, coq7 and coq9 null mutants were prepared in the W303 yeast genetic background (WT). Yeast strains were grown in YPD medium (1% Bacto-yeast extract, 2% Bacto-peptone, 2% dextrose) and harvested while in log phase growth (OD600nm=0.1-1.0). Cells were washed twice with sterile water and resuspended in phosphate buffer (0.10 M sodium phosphate, pH 6.2, 0.2% dextrose) to an OD600nm=0.2. Samples were removed and 1:5 serial dilutions starting at 0.20 OD/ml were plated on YPD plate medium, to provide a zero time untreated control (shown in top left panel). The designated fatty acids were added to 200 uM final concentration to 20 ml of yeast in phosphate buffer. At 2 h, 4 h, and 16 h samples were removed, 1:5 serial dilutions prepared, and spotted onto YPD plate medium. Pictures were taken after 2 days of growth at 30° C.
FIG. 4. […] The fatty acid sensitive assay was performed as described in FIG. 6-1, except that 100 ul aliquots were removed at 1, 2, and 4 h and, following dilution, spread onto YPD plates. Pictures were taken after 2 to 2.5 days, and the number of colonies counted. Yeast strains include Wild type (circles), atp2 (triangles), or coq3 (squares); Fatty acid treatments include oleic C18:1 (solid line), linolenic, C18:3, n-3 (dashed line) or 11,11,14,14-D4-linolenic, C18:3, n-3, (dotted line).
Q-less yeast (coq mutants) provide an ideal system to assess in vivo autoxidation of fatty acids. Coenzyme Q (ubiquinone or Q) serves as a small lipophilic antioxidant as well as an electron shuttle in the respiratory chain of the mitochondrial inner membrane. Ten S. cerevisiae genes (COQ1-COQ10) are required for coenzyme Q biosynthesis and function, and the deletion of any results in respiratory deficiency (Tran U C, Clarke C F. Mitochondrion 2007; 75,S62).
A plate dilution assay can be used to assess PUFA sensitivity. This assay can be performed by spotting serial five-fold dilutions of aliquots onto YPD plate media (FIG. 3). The sensitivity of the different strains can be observed by visual inspection of the density of cells in each spot.

WT (W303) yeast = conditions: 200 μM, 4 h incubation
Description: Uptake of exogenously supplied fatty acids by yeast. WT (W303) yeast were harvested at log phase and incubated in the presence of 200 μM of the designated fatty acid for either 0 or 4 h.
Chromatograms of the yeast extracts subjected to GC-MS analyses. The different traces represent the 0 and 4 h incubations, respectively. The peak area of Each FAME (C18:1, C18:3 and D4-linolenic) was divided by the peak area of the C17:0 standard, quantified with a calibration curve.
Wild-type yeast were harvested during log phase growth and incubated in the presence of exogenously added fatty acid (for 0 or 4 h) in the presence of phosphate buffer plus 0.20% dextrose, as described for the fatty acid sensitivity assay. Cells were harvested, washed twice with 10 ml sterile water, and the yeast cell pellets were then processed by alkaline methanolysis as described above. The fatty acids are detected as methylesters (FAMEs) following GC-MS with C17:0 added as an internal standard (FIG. 6). The amounts of 18:3 and D4 detected after 4 h incubation were extrapolated from the calibration curve.

[2] = mouse, in vivo; cited from earlier work
[3] = tested on: coq null mutants (Q-less yeast); conditions: cited from earlier work; for sensitivity of Q-less yeast to fatty acid treatment: compared with wild-type parental strain
[4] = tested on: wild-type (strain W303-1B) cells; conditions: four hour treatment; cited from earlier work

## [2H]C([2H])(/C=C\C/C=C\CC)C/C=C\CCCCCCC(=O)O [11, 11-D2-linolenic acid, 11,11-Dideutero-cis,cis,cis-octadeca-8,12,15-trienoic acid]
[1]
  protection in the yeast model: comparable protection

## [2H]C([2H])(/C=C\CC)/C=C\CC/C=C\CCCCCCC(=O)O [14, 14-D2-linolenic acid, 14,14-Dideutero-cis,cis,cis-octadeca-8,12,15-trienoic acid]
[1]
  protection in the yeast model: comparable protection

## [2H]C([2H])(/C=C\CC)/C=C\C([2H])([2H])/C=C\CCCCCCCC(=O)O [D4-linolenic acid, 11,11,14,14-Tetradeutero-cis,cis,cis-9,12,15-Octadecatrienoic acid]
[1]; quantitative colony counting
  viability of cells compared with oleic acid treatment: similar
WT (W303) yeast
  incorporation of exogenously added fatty acid by yeast: avidly incorporate

## CCCCC/C=C\C/C=C\CCCCCCCC(=O)O [LA, (9Z,12Z)-9,12-Octadecadienoic acid]
[2]
  time at which higher-order PUFA concentration peaks in brain: ≤ 8 h

## CCCCC/C=C\C/C=C\C/C=C\C/C=C\CCCC(=O)O [arachidonic acid]
[3]
  sensitivity of Q-less yeast to fatty acid treatment: hypersensitive

## CC/C=C\C/C=C\C/C=C\CCCCCCCC(=O)O [linolenic acid, (9Z,12Z,15Z)-9,12,15-Octadecatrienoic acid]
[4]
  wild-type cells remaining viable: 70%
[1]; 200 uM fatty acid, plate dilution assay
  viability / cell killing of coq mutants: dramatic loss of viability
[1]; quantitative colony counting, treatment for 4 h
  reduction of viability of the coq mutants: more than 100 fold
WT (W303) yeast
  incorporation of exogenously added fatty acid by yeast: avidly incorporate
[2]
  time at which higher-order PUFA concentration peaks in brain: ≤ 8 h
[3]; following a four hour treatment
  viable Q-less (coq2, coq3, and coq5) yeast mutants: Less than 1%

## CCCCCCCC/C=C\CCCCCCCC(=O)O [oleic acid]
[3]
  sensitivity of Q-less yeast to fatty acid treatment: behave the same as the wild-type parental strain
